Laboratory results reported in the supplement of paper PMC10733146.

Key:
Assay in all cases: viability relative to DMSO control (fraction); higher = less drug effect (more viable cells)
Conditions in all cases: 48 h
[1] = system: primary AML patient cells (S002)
How it was run: (§1)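 The cells were primary mononuclear tumour cells, either fresh or cryopreserved, isolated by Ficoll from blood or bone marrow or derived from processed lymph node. Each well of a 384-well plate received 4 × 10^4 cells onto compounds pre-plated at five concentrations, with one well per concentration. The medium was RPMI-1640 with penicillin/streptomycin, L-glutamine and human serum, and plates stood at 37 °C and 5% CO2 for 48 h. Viability is reported as CellTiter-Glo luminescence relative to the median of 16 inner DMSO wells.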

[2] = system: primary AML patient cells (S007)
How it was run: as §1

[3] = system: primary AML patient cells (S009)
How it was run: as §1

[4] = system: primary AML patient cells (S019)
How it was run: as §1

[5] = system: primary AML patient cells (S025)
How it was run: as §1

[6] = system: primary AML patient cells (S037)
How it was run: as §1

[7] = system: primary AML patient cells (S071)
How it was run: as §1

[8] = system: primary AML patient cells (S072)
How it was run: as §1

[9] = system: primary AML patient cells (S079)
How it was run: as §1

[10] = system: primary AML patient cells (S089)
How it was run: as §1

[11] = system: primary AML patient cells (S091)
How it was run: as §1

[12] = system: primary DLBCL patient cells (S049)
How it was run: as §1

[13] = system: primary DLBCL patient cells (S076)
How it was run: as §1

[14] = system: primary DLBCL patient cells (S082)
How it was run: as §1

[15] = system: primary MCL patient cells (S041)
How it was run: as §1

[16] = system: primary T-NHL patient cells (S058)
How it was run: as §1

[17] = system: primary T-PLL patient cells (S008)
How it was run: as §1

Compound CC#CC(=O)N1CCC[C@H]1c1nc(-c2ccc(C(=O)Nc3ccccn3)cc2)c2c(N)nccn12 [Acalabrutinib (ACP-196)] has a viability ([1]; 0.008 µM) of 0.98, a viability ([1]; 0.04 µM) of 1.15 and a viability ([1]; 0.2 µM) of 1.03. It also gave a viability ([1]; 1 µM) of 0.952, a viability ([1]; 5 µM) of 1.04 and a viability ([2]; 0.008 µM) of 0.895. It also gave a viability ([2]; 0.04 µM) of 0.945, a viability ([2]; 0.2 µM) of 0.911 and a viability ([2]; 1 µM) of 1.07. For the same compound, the viability ([2]; 5 µM) was 1.04, the viability ([3]; 0.008 µM) was 1.19 and the viability ([3]; 0.04 µM) was 1.11. For the same compound, the viability ([3]; 0.2 µM) was 1.16, the viability ([3]; 1 µM) was 1.09 and the viability ([3]; 5 µM) was 1.12. For the same compound, the viability ([4]; 0.008 µM) was 1.09, the viability ([4]; 0.04 µM) was 1.2 and the viability ([4]; 0.2 µM) was 1.08. The viability ([4]; 1 µM) was 1.12, the viability ([4]; 5 µM) was 1.06 and the viability ([5]; 0.008 µM) was 1.06. The viability ([5]; 0.04 µM) was 1.26, the viability ([5]; 0.2 µM) was 1.04 and the viability ([5]; 1 µM) was 1.05. For the same compound, the viability ([5]; 5 µM) was 1.05, the viability ([6]; 0.008 µM) was 1.07 and the viability ([6]; 0.04 µM) was 1.62. For the same compound, the viability ([6]; 0.2 µM) was 1.07, the viability ([6]; 1 µM) was 1.22 and the viability ([6]; 5 µM) was 1.05. For the same compound, the viability ([7]; 0.008 µM) was 1.06, the viability ([7]; 0.04 µM) was 1.02 and the viability ([7]; 0.2 µM) was 1.01. It also gave a viability ([7]; 1 µM) of 1.01, a viability ([7]; 5 µM) of 0.994 and a viability ([8]; 0.008 µM) of 0.995. The viability ([8]; 0.04 µM) was 0.971, the viability ([8]; 0.2 µM) was 0.989 and the viability ([8]; 1 µM) was 0.941. For the same compound, the viability ([8]; 5 µM) was 0.971, the viability ([9]; 0.008 µM) was 0.948 and the viability ([9]; 0.04 µM) was 0.906. For the same compound, the viability ([9]; 0.2 µM) was 0.859, the viability ([9]; 1 µM) was 1.11 and the viability ([9]; 5 µM) was 0.965. The viability ([10]; 0.008 µM) was 0.975, the viability ([10]; 0.04 µM) was 0.996 and the viability ([10]; 0.2 µM) was 0.91. For the same compound, the viability ([10]; 1 µM) was 0.679, the viability ([10]; 5 µM) was 0.629 and the viability ([11]; 0.008 µM) was 0.945. It also gave a viability ([11]; 0.04 µM) of 1.06, a viability ([11]; 0.2 µM) of 0.979 and a viability ([11]; 1 µM) of 1.01. The viability ([11]; 5 µM) was 1.07, the viability ([12]; 0.008 µM) was 0.892 and the viability ([12]; 0.04 µM) was 0.758. It also gave a viability ([12]; 0.2 µM) of 0.693, a viability ([12]; 1 µM) of 0.74 and a viability ([12]; 5 µM) of 0.704. The viability ([13]; 0.008 µM) was 1.08, the viability ([13]; 0.04 µM) was 1.14 and the viability ([13]; 0.2 µM) was 1.11. It also gave a viability ([13]; 1 µM) of 1.12, a viability ([13]; 5 µM) of 1.06 and a viability ([14]; 0.008 µM) of 0.804. It also gave a viability ([14]; 0.04 µM) of 0.675, a viability ([14]; 0.2 µM) of 0.559 and a viability ([14]; 1 µM) of 0.462. It also gave a viability ([14]; 5 µM) of 0.447, a viability ([15]; 0.008 µM) of 1 and a viability ([15]; 0.04 µM) of 1. The viability ([15]; 0.2 µM) was 0.859, the viability ([15]; 1 µM) was 0.899 and the viability ([15]; 5 µM) was 0.855. It also gave a viability ([16]; 0.008 µM) of 1.16, a viability ([16]; 0.04 µM) of 1.21 and a viability ([16]; 0.2 µM) of 1.14. For the same compound, the viability ([16]; 1 µM) was 1.25, the viability ([16]; 5 µM) was 1.06 and the viability ([17]; 0.008 µM) was 1.11. It also gave a viability ([17]; 0.04 µM) of 1.01, a viability ([17]; 0.2 µM) of 1.08 and a viability ([17]; 1 µM) of 0.989. For the same compound, the viability ([17]; 5 µM) was 1.13.
